Biological target: Integrase (Human immunodeficiency virus 1, UniProt Q7ZJM1)
Assay: Inhibition of Human immunodeficiency virus 1 integrase strand transfer activity

Integrase, sequence (Q7ZJM1 whole entry): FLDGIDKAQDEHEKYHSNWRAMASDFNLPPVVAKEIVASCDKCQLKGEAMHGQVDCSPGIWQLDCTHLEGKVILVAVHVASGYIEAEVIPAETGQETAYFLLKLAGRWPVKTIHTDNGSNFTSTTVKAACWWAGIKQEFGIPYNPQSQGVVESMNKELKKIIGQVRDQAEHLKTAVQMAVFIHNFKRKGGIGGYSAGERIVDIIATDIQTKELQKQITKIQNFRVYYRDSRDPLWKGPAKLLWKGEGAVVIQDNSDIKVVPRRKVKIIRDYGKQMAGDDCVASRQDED

IC50: 0.25 nM
SMILES: CCN(CC)CCC[C@@H](C)Nc1ccnc2cc(Cl)ccc12 [Aralen]
